In general, MIC refers to the smallest concentration in the dilution series that meets the test's criterion for growth inhibition. The low end stands for greater potency, the high end for weaker potency. Usually IC50 stands for the concentration needed to halve the response being measured. A high value points to weaker potency in that assay.

In brackets after ≈: the same amount, converted by molar mass.

Here are results for four compounds from ChEMBL document CHEMBL2016451, “Antimycobacterial activity of bisbenzylisoquinoline alkaloids from Tiliacora triandra against multidrug-resistant isolates of Mycobacterium tuberculosis” (Bioorg Med Chem Lett, 2012).

Data set [1] relates to Mycobacterium tuberculosis. Put plainly: Antimycobacterial activity against Mycobacterium tuberculosis H37Ra after 16 to 24 hrs by alamar blue assay. It is filed as functional.
Data set [2] deals with MRC5. The experiment in a line: Cytotoxicity against human MRC5 cells at 2.1 ug/ml by MTT assay. Type of data set: cell-based. (Formazan colour is commonly taken as a measure of viable cells.)
In data set [3] the test system is MRC5. Put plainly: Cytotoxicity against human MRC5 cells at 6 ug/ml by MTT assay. It is filed as cell-based.
The test system of data set [4] is MRC5. The experiment in a line: Cytotoxicity against human MRC5 cells at 1 ug/ml by MTT assay. Type of data set: cell-based.
Data set [5] deals with MRC5. The experiment in a line: Cytotoxicity against human MRC5 cells by MTT assay. It is filed as cell-based.
Data set [6] relates to Mycobacterium tuberculosis. The experiment in a line: Antimycobacterial activity against p-aminosalicylic acid-resistant Mycobacterium tuberculosis H37Rv ATCC 35821 after 16 to 24 hrs by alamar blue assay. Type of data set: functional.
The subject of data set [7] is Mycobacterium tuberculosis. Put plainly: Antimycobacterial activity against Mycobacterium tuberculosis H37Rv after 16 to 24 hrs by alamar blue assay. It is filed as functional. A general note: Resazurin is reduced to fluorescent resorufin, in cell work by metabolically active cells.
In data set [8] the test system is MRC5. Put plainly: Cytotoxicity against human MRC5 cells at 2 ug/ml by MTT assay. Type of data set: cell-based.

Turning to `COc1ccc2cc1-c1cc(ccc1O)C[C@@H]1NCCc3cc4c(cc31)Oc1c(c(OC)cc3c1[C@H](C2)N(C)CC3)O4`, the MIC in data set [1] was 3.1 µg/mL (≈ 5.51 µM); in data set [6] it was 1.5 µg/mL (≈ 2.67 µM); in data set [7], 3.1 µg/mL (≈ 5.51 µM). Besides, the Activity entry in the data set on MRC5 [2], with MRC5 [3], in the data set with MRC5 [4] and in the data set on MRC5 [8] was “Non-toxic” each time. Further, in the data set on MRC5 [5], the half-maximal inhibitory concentration (IC50) is 3.8 µg/mL (≈ 6.75 µM).

On to `COc1ccc2cc1-c1cc(cc(Br)c1O)C[C@H]1c3cc4c(cc3CCN1C)Oc1c(OC)cc3c(c1O4)[C@H](C2)N(C)CC3`, for which the MIC in data set [1] worked out at 6.2 µg/mL (≈ 9.46 µM); in data set [6], 1.5 µg/mL (≈ 2.29 µM); in data set [7], 3.1 µg/mL (≈ 4.73 µM). Also, the Activity result in the data set on MRC5 [2], in the data set on MRC5 [3], in the data set on MRC5 [4] and in the data set on MRC5 [8] was “Non-toxic” each time. Further, in the data set on MRC5 [5], the half-inhibitory concentration (IC50) turned out to be 20 µg/mL (≈ 30.5 µM).

On to `COc1ccc2cc1-c1cc(ccc1O)C[C@H]1c3cc4c(cc3CCN1C)Oc1c(OC)cc3c(c1O4)[C@@H](C2)N(C)CC3` [TILIACORINE], for which the MIC in data set [1], in data set [6] and in data set [7] was 3.1 µg/mL (≈ 5.38 µM) throughout. Further, the Activity entry in the data set with MRC5 [2], in the data set with MRC5 [3], with MRC5 [4] and in the data set with MRC5 [8] was “Non-toxic” throughout. The compound also returned an IC50 in the data set on MRC5 [5] of 3.87 µg/mL (≈ 6.71 µM).

With `COc1ccc2cc1-c1cc(ccc1O)C[C@H]1c3cc4c(cc3CCN1C)Oc1c(OC)cc3c(c1O4)[C@H](C2)N(C)CC3` [TILIACORININE], the MIC was 3.1 µg/mL (≈ 5.38 µM) in data set [1], 3.1 µg/mL (≈ 5.38 µM) in data set [6] and 6.2 µg/mL (≈ 10.8 µM) in data set [7]. Also, the Activity result in the data set on MRC5 [2], in the data set with MRC5 [3], in the data set on MRC5 [4] and in the data set with MRC5 [8] was “Non-toxic” each time. In addition, the IC50 with MRC5 [5] was found to be 3.13 µg/mL (≈ 5.43 µM).
